Measured values: patent US8450308B2 (Vitae Pharmaceuticals, Inc., priority 2008, dated 2013)

Target: T1, truncated human beta-secretase (residues 1-458, His6-tagged at the C-terminus) (Homo sapiens, UniProt P56817)
T1 construct: truncated human beta-secretase (residues 1-458, His6-tagged at the C-terminus); His6 (C); made in house; host or cells: insect cells D. melanogaster S2 (baculovirus expression system (so in the source))
Test: BACE fluorescence quench assay
Type: biochemical
Conditions: not given
Description: The assay was performed at room temperature in 96-well white opaque Optiplates aque Optiplates (PerkinElmer, Waltham, Mass.) in a total volume of 200 μl of the incubation mixture containing 50 mM sodium acetate buffer, pH 4.5, 0.4 μM FRET substrate, 2.4 nM enzyme, 5% DMSO, and 0.05% Brij-35. The tested compounds were serially diluted in DMSO and pre-incubated with the substrate. The reaction was started by addition of enzyme, and the progress of the reaction was followed by measuring fluorescence with an excitation wavelength of 480 nm and an emission wavelength of 520 nm. Ten measurements were taken every 5-10 min, and the intensity of fluorescence was regressed against time in order to derive velocities of reaction in all 96 wells. […] IC50 values were calculated by fitting percent inhibition vs. inhibitor concentration into a four-parametric logistic model using XLFit software (IDBS, Guildford, UK).

T1 sequence (P56817 22-458): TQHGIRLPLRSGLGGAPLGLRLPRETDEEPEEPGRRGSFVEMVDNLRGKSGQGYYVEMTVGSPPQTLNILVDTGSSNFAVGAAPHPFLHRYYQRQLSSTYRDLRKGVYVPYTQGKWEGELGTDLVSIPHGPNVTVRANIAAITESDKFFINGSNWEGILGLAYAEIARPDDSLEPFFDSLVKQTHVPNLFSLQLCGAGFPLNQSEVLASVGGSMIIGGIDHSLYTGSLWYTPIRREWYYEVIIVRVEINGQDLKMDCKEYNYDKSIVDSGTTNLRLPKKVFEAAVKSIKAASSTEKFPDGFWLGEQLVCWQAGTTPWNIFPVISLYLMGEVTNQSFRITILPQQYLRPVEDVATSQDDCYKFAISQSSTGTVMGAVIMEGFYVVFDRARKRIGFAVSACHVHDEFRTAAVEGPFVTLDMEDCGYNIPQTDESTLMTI

Row | Compound | IC50 [µM]
1 | CN1C(=O)C2(CC(c3ccccc3)Oc3ccc(-c4cccc(OC(F)(F)F)c4)cc32)N=C1N (stereo not shown) [Compound 24, 2′-amino-1′-methyl-2-phenyl-6-(3-(trifluoromethoxy)phenyl)spiro[chroman-4,4′-imidazol]-5′(1′H)-one] | 1 to 5
2 | CN1C(=O)C2(CC(c3ccccc3)Oc3ccc(-c4ccc(CO)cc4)cc32)N=C1N (stereo not shown) [Compound 26, 2′-amino-6-(4-(hydroxymethyl)phenyl)-1′-methyl-2-phenylspiro[chroman-4,4′-imidazol]-5′(1′H)-one] | 1 to 5
3 | CN1C(=O)C2(CC(c3ccccc3)Oc3ccc(-c4ccccc4)cc32)N=C1N (stereo not shown) [Compound 27, 2′-amino-1′-methyl-2,6-diphenylspiro-[chroman-4,4′-imidazol]-5′(1′H)-one] | 1 to 5
4 | CN1C(=O)C2(CC(c3ccccc3)Oc3ccc(-c4cccc(S(C)(=O)=O)c4)cc32)N=C1N (stereo not shown) [Compound 28, 2′-amino-1′-methyl-6-(3-(methylsulfonyl)phenyl)-2-phenylspiro[chroman-4,4′-imidazol]-5′(1′H)-one] | 1 to 5
5 | CN1C(=O)C2(CC(c3ccccc3)Oc3ccc(-c4cccc(CC#N)c4)cc32)N=C1N (stereo not shown) [Compound 29, 2-(3-(2′-amino-1′-methyl-5′-oxo-2-phenyl-1′,5′-dihydrospiro[chroman-4,4′-imidazole]-6-yl)phenyl)acetonitrile] | 1 to 5
6 | CN1C(=O)C2(CC(c3ccccc3)Oc3ccc(-c4cccc(C(F)(F)F)c4)cc32)N=C1N (stereo not shown) [Compound 30, 2′-amino-1′-methyl-2-phenyl-6-(3-(trifluoromethyl)phenyl)spiro[chroman-4,4′-imidazol]-5′(1′H)-one] | 1 to 5
7 | CN1C(=O)C2(CC(c3ccccc3)Oc3ccc(-c4cccc(CO)c4)cc32)N=C1N (stereo not shown) [Compound 33, 2′-amino-6-(3-(hydroxymethyl)phenyl)-1′-methyl-2-phenylspiro[chroman-4,4′-imidazol]-5′(1′H)-one] | 1 to 5
8 | CN1C(=O)C2(CC(c3ccccc3)Oc3ccc(-c4ccccc4C#N)cc32)N=C1N (stereo not shown) [Compound 35, 2-(2′-amino-1′-methyl-5′-oxo-2-phenyl-1′,5′-dihydrospiro[chroman-4,4′-imidazole]-6-yl)benzonitrile] | 1 to 5
9 | CN1C(=O)C2(CC(c3ccccc3)Oc3ccc(-c4cccs4)cc32)N=C1N (stereo not shown) [Compound 36, 2′-amino-1′-methyl-2-phenyl-6-(thiophen-2-yl)spiro[chroman-4,4′-imidazol]-5′(1′H)-one] | 1 to 5
10 | CN(C)C(=O)c1cccc(-c2ccc3c(c2)C2(CC(c4ccccc4)O3)N=C(N)N(C)C2=O)c1 (stereo not shown) [Compound 39, 3-(2′-amino-1′-methyl-5′-oxo-2-phenyl-1′,5′-dihydrospiro[chroman-4,4′-imidazole]-6-yl)-N,N-dimethylbenzamide] | 1 to 5
11 | CN1C(=O)C2(CC(c3ccccc3)Oc3ccc(-c4ccc(F)c(C(=O)NCCO)c4)cc32)N=C1N (stereo not shown) [Compound 40, 5-(2′-amino-1′-methyl-5′-oxo-2-phenyl-1′,5′-dihydrospiro[chroman-4,4′-imidazole]-6-yl)-2-fluoro-N-(2-hydroxyethyl)benzamide] | 1 to 5
12 | CC(=O)Nc1cccc(-c2ccc3c(c2)C2(CC(c4ccccc4)O3)N=C(N)N(C)C2=O)c1 (stereo not shown) [Compound 41, N-(3-(2′-amino-1′-methyl-5′-oxo-2-phenyl-1′,5′-dihydrospiro[chroman-4,4′-imidazole]-6-yl)phenyl)acetamide] | 1 to 5
13 | CC(=O)NCc1cccc(-c2ccc3c(c2)C2(CC(c4ccccc4)O3)N=C(N)N(C)C2=O)c1 (stereo not shown) [Compound 43, N-(3-(2′-amino-1′-methyl-5′-oxo-2-phenyl-1′,5′-dihydrospiro[chroman-4,4′-imidazole]-6-yl)benzyl)acetamide] | 5 to 10
14 | CN1C(=O)C2(CC(c3ccccc3)Oc3ccc(Br)cc32)N=C1N (stereo not shown) [Compound 44, 2′-amino-6-bromo-1′-methyl-2-phenylspiro[chroman-4,4′-imidazol]-5′(1′H)-one] | 10 to 50
15 | CN1C(=O)C2(CC(c3ccccc3)Oc3ccc(-c4cccc(S(=O)(=O)N(C)C)c4)cc32)N=C1N (stereo not shown) [Compound 45, 3-(2′-amino-1′-methyl-5′-oxo-2-phenyl-1′,5′-dihydrospiro[chroman-4,4′-imidazole]-6-yl)-N,N-dimethylbenzenesulfonamide] | 5 to 10
16 | CN1C(=O)C2(CC(c3ccccc3)Oc3ccc(-c4cccc(C(=O)NCCC#N)c4)cc32)N=C1N (stereo not shown) [Compound 47, 3-(2′-amino-1′-methyl-5′-oxo-2-phenyl-1′,5′-dihydrospiro[chroman-4,4′-imidazole]-6-yl)-N-(2-cyanoethyl)benzamide] | 5 to 10
17 | CNS(=O)(=O)c1cccc(-c2ccc3c(c2)C2(CC(c4ccccc4)O3)N=C(N)N(C)C2=O)c1 (stereo not shown) [Compound 48, 3-(2′-amino-1′-methyl-5′-oxo-2-phenyl-1′,5′-dihydrospiro[chroman-4,4′-imidazole]-6-yl)-N-methylbenzenesulfonamide] | 5 to 10
18 | CN1C(=O)C2(CC(c3ccccc3)Oc3ccc(-c4ccc(S(C)(=O)=O)cc4)cc32)N=C1N (stereo not shown) [Compound 49, 2′-amino-1′-methyl-6-(4-(methylsulfonyl)phenyl)-2-phenylspir-o[chroman-4,4′-imidazol]-5′(1′H)-one] | 5 to 10
19 | CNC(=O)c1cccc(-c2ccc3c(c2)C2(CC(c4ccccc4)O3)N=C(N)N(C)C2=O)c1 (stereo not shown) [Compound 50, 3-(2′-amino-1′-methyl-5′-oxo-2-phenyl-1′,5′-dihydrospiro[chroman-4,4′-imidazole]-6-yl)-N-methylbenzamide] | 5 to 10
20 | CN1C(=O)C2(CC(c3ccccc3)Oc3ccc(-c4cccc(NS(C)(=O)=O)c4)cc32)N=C1N (stereo not shown) [Compound 52, N-(3-(2′-amino-1′-methyl-5′-oxo-2-phenyl-1′,5′-dihydrospiro[chroman-4,4′-imidazole]-6-yl)phenyl)methanesulfonamide] | 5 to 10
21 | COCc1ccc(-c2ccc3c(c2)C2(CC(c4ccccc4)O3)N=C(N)N(C)C2=O)cc1 (stereo not shown) [Compound 54, 2′-amino-6-(4-(methoxymethyl)phenyl)-1′-methyl-2-phenylspiro[chroman-4,4′-imidazol]-5′(1′H)-one] | 10 to 50
22 | CN1C(=O)C2(CC(c3ccccc3)Oc3ccc(-c4ccc(C(F)(F)F)cc4)cc32)N=C1N (stereo not shown) [Compound 56, 2′-amino-1′-methyl-2-phenyl-6-(4-(trifluoromethyl)phenyl)spiro[chroman-4,4′-imidazol]-5′(1′H)-one] | 10 to 50
23 | CN1C(=O)C2(CC(c3ccccc3)Oc3ccc(-c4ccncc4)cc32)N=C1N (stereo not shown) [Compound 58, 2′-amino-1′-methyl-2-phenyl-6-(pyridin-4-yl)spiro[chroman-4,4′-imidazol]-5′(1′H)-one] | 10 to 50

Same assay, conditions: in vitro enzyme activity, BACE fluorescence assay, pH 4.5; read-out: IC50

Row | IC50 [µM] | Compound
24 | 1 to 5 | CN1C(=O)C2(CC(c3cccnc3)Oc3ccc(-c4cccc(C#N)c4)cc32)N=C1N (stereo not shown) [Compound 31]
25 | 1 to 5 | CN1C(=O)C2(CC(C)(c3ccccc3)Oc3ccc(-c4cccc(C#N)c4)cc32)N=C1N (stereo not shown) [Compound 32, 3-(2′-amino-1′,2-dimethyl-5′-oxo-2-phenyl-1′,5′-dihydrospiro[chroman-4,4′-imidazole]-6-yl)benzonitrile]
26 | 1 to 5 | CN1C(=O)C2(CC(c3cccc(Cl)c3)Oc3ccc(Br)cc32)N=C1N (stereo not shown) [Compound 34, 2′-amino-6-bromo-2-(3-chlorophenyl)-1′-methylspiro[chroman-4,4′-imidazol]-5′(1′H)-one]
27 | 1 to 5 | CN1C(=O)C2(CC(c3cccc(F)c3)Oc3ccc(Br)cc32)N=C1N (stereo not shown) [Compound 38, 2′-amino-6-bromo-2-(3-fluorophenyl)-1′-methylspiro[chroman-4,4′-imidazol]-5′(1′H)-one]
28 | 5 to 10 | CN1C(=O)C2(CC(c3cccc(F)c3F)Oc3ccc(Br)cc32)N=C1N (stereo not shown) [Compound 42]
29 | 5 to 10 | COc1cccc(C2CC3(N=C(N)N(C)C3=O)c3cc(Br)ccc3O2)c1 (stereo not shown) [Compound 46, 2′-amino-6-bromo-2-(3-methoxyphenyl)-1′-methylspiro[chroman-4,4′-imidazol]-5′(1′H)-one]
30 | 10 to 50 | CN1C(=O)C2(CC(c3ccc(Cl)cc3)Oc3ccc(Br)cc32)N=C1N (stereo not shown) [Compound 53, 2′-amino-6-bromo-2-(4-chlorophenyl)-1′-methylspiro[chroman-4,4′-imidazol]-5′(1′H)-one]
31 | 10 to 50 | CCCCNC(=O)c1cccc(-c2ccc3c(c2)[C@]2(C[C@H](c4ccccc4)O3)N=C(N)N(C)C2=O)c1 [Compound 55a, 3-((2R,4S)-2′-amino-1′-methyl-5′-oxo-2-phenyl-1′,5′-dihydrospiro[chroman-4,4′-imidazole]-6-yl)-N-butylbenzamide]
32 | 10 to 50 | CCCCNC(=O)c1cccc(-c2ccc3c(c2)[C@]2(C[C@@H](c4ccccc4)O3)N=C(N)N(C)C2=O)c1 [Compound 55b, 3-((2S,4S)-2′-amino-1′-methyl-5′-oxo-2-phenyl-1′,5′-dihydrospiro[chroman-4,4′-imidazole]-6-yl)-N-butylbenzamide]
33 | 10 to 50 | CCCN1C(=O)C2(CC(c3ccccc3)Oc3ccc(Br)cc32)N=C1N (stereo not shown) [Compound 57, 2′-amino-6-bromo-2-phenyl-1′-propylspiro[chroman-4,4′-imidazol]-5′(1′H)-one]
34 | 10 to 50 | CCCN1C(=O)[C@@]2(C[C@H](c3ccccc3)Oc3ccc(Br)cc32)N=C1N [Compound 57a, (2R,4S)-2′-amino-6-bromo-2-phenyl-1′-propylspiro[chroman-4,4′-imidazol]-5′(1′H)-one]
